Legend:
[1] = tested on: TGF-β-stimulated SMAD3 phosphorylation in BEAS-2B cells; experiment: Cellular ALK5 potency assay, inhibition of TGF-β stimulated pSMAD3 formation in BEAS-2B cells; format: cell-based; conditions: Homo sapiens; inhibition of TGF-β stimulated pSMAD3 formation, BEAS-2B cells; read-out: BEAS2B pIC50 (converted)
Summary of the method: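 SMAD3 phosphorylation was measured by AlphaLISA after 30 min TGF-β stimulation (10 ng/mL final) of BEAS-2B cells preincubated 1 h with compound at 37 °C. Results given as pIC50.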

[2] = biological target: T1, recombinant human ALK5 (TGF-βR1) protein (Homo sapiens, UniProt P36897); experiment: Biochemical ALK5 (TGF-βR1) assay to measure pKi (LANCE Ultra ULight kinase assay); conditions: apparent pKi from pIC50 by Cheng-Prusoff, read-out: ALK5 pKi (converted)
T1 construct: purchased Life Technologies PR9075A
T1 sequence (P36897 34-503): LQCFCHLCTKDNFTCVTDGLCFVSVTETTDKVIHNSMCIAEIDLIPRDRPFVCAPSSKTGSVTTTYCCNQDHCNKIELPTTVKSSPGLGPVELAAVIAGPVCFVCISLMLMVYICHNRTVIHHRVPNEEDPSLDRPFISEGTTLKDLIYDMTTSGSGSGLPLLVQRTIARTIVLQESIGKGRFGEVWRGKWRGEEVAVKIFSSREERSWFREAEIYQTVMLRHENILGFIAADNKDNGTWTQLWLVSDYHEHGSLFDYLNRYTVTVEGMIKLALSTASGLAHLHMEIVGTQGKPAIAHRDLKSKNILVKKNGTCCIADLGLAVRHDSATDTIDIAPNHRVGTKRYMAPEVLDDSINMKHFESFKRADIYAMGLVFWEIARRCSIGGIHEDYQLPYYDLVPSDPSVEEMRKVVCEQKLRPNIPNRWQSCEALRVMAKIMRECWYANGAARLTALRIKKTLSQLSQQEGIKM
Summary of the method: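 Compounds (10 μM to 25 pM) preincubated 60 minutes at room temperature with enzyme, then reaction run 60 minutes at 37° C with ATP added as 125 μM (5× final). Stopped with EDTA plus Eu-anti-phospho-Topoisomerase 2-alpha (Thr1342) antibody, TR-FRET read at 665 nm; pIC50 converted to pKi via Cheng-Prusoff.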

Ki [2] [nM]	Compound	IC50 [1] [nM]
0.0398 to 0.316	Cc1cccc(-c2[nH]cnc2-c2ccc3ncc(-c4cncc(C(=O)OC5CNC5)c4)cc3c2)n1 [Compound 577, azetidin-3-yl 5-[6-[5-(6-methyl-2-pyridyl)-1H-imidazol-4-yl]-3-quinolyl]pyridine-3-carboxylate]	200 to 1260
0.398 to 3.16	Cc1cccc(-c2[nH]ncc2-c2ccc3nccc(C(=O)O[C@H]4CC[C@H](N)CC4)c3c2)n1 [Compound 1217, (4-aminocyclohexyl) 6-[5-(6-methyl-2-pyridyl)-1H-pyrazol-4-yl]quinoline-4-carboxylate]	25.1 to 158
0.0398 to 0.316	Cc1cccc(-c2n[nH]cc2-c2ccc3nccc(-c4cnco4)c3n2)n1 [Compound 824, 5-[6-[3-(6-methyl-2-pyridyl)-1H-pyrazol-4-yl]-1,5-naphthyridin-4-yl]oxazole]	< 20
0.398 to 3.16	Cc1cccc(-c2[nH]cnc2-c2ccc3ncc(C(=O)OCCN4CCCC4)cc3c2)n1 [Compound 737, 2-pyrrolidin-1-ylethyl 6-[5-(6-methyl-2-pyridyl)-1H-imidazol-4-yl]quinoline-3-carboxylate]	25.1 to 158
0.398 to 3.16	Cc1nc(-c2nc3ccccn3c2-c2ccc3ncc(Br)cc3n2)ccc1F [Compound 453, 7-bromo-2-[2-(5-fluoro-6-methyl-2-pyridyl)imidazo[1,2-a]pyridin-3-yl]-1,5-naphthyridine]	1580 to 10000
0.0398 to 0.316	Cc1cccc(-c2n[nH]cc2-c2ccc3nccc(Cl)c3n2)n1 [Compound 851, 8-chloro-2-[3-(6-methyl-2-pyridyl)-1H-pyrazol-4-yl]-1,5-naphthyridine]	< 20
0.0398 to 0.316	Cc1cccc(-c2n[nH]cc2-c2ccc3ncc(N4CC(N)C4)cc3n2)n1 [Compound 193, 1-[6-[3-(6-methyl-2-pyridyl)-1H-pyrazol-4-yl]-1,5-naphthyridin-3-yl]azetidin-3-amine]	25.1 to 158
0.0398 to 0.316	Cc1cccc(-c2[nH]cnc2-c2ccc3ncc(N4CCNCC4)cc3c2)n1 [Compound 412, 6-[5-(6-methyl-2-pyridyl)-1H-imidazol-4-yl]-3-piperazin-1-yl-quinoline]	< 20
0.0398 to 0.316	Cc1cccc(-c2[nH]cnc2-c2ccc3ncc(-c4cnc5c(c4)CCNC5)cc3c2)n1 [Compound 721, 3-[6-[5-(6-methyl-2-pyridyl)-1H-imidazol-4-yl]-3-quinolyl]-5,6,7,8-tetrahydro-1,7-naphthyridine]	25.1 to 158
0.0398 to 0.316	Cc1cccc(-c2[nH]cnc2-c2ccc3ncc(-c4ccc(C(=O)OC[C@H]5CCCNC5)cn4)cc3c2)n1 [Compound 1224, [(3S)-3-piperidyl]methyl 6-[6-[5-(6-methyl-2-pyridyl)-1H-imidazol-4-yl]-3-quinolyl]pyridine-3-carboxylate]	25.1 to 158
0.0398 to 0.316	CNCCn1cc(-c2cnc3ccc(-c4c(-c5cccc(C)n5)[nH]c5ccccc45)cc3c2)cn1 [Compound 162, N-methyl-2-[4-[6-[2-(6-methyl-2-pyridyl)-1H-indol-3-yl]-3-quinolyl]pyrazol-1-yl]ethanamine]	200 to 1260
0.398 to 3.16	Cc1cccc(-c2[nH]nnc2-c2ccc3ncc(-c4c[nH]nc4C(F)(F)F)cc3n2)n1 [Compound 521, 2-[5-(6-methyl-2-pyridyl)-1H-triazol-4-yl]-7-[3-(trifluoromethyl)-1H-pyrazol-4-yl]-1,5-naphthyridine]	25.1 to 158
< 0.0316	Cc1nc(-c2n[nH]cc2-c2ccc3ncc(NCCN4CCCC4(C)C)cc3n2)ccc1F [Compound 526, N-(2-(2,2-dimethylpyrrolidin-1-yl)ethyl)-6-(3-(5-fluoro-6-methylpyridin-2-yl)-1H-pyrazol-4-yl)-1,5-naphthyridin-3-amine]	25.1 to 158
0.0398 to 0.316	Cc1cccc(-c2nc3ccccn3c2-c2ccc3ncc(-c4nc5n(n4)CCNC5)cc3n2)n1 [Compound 415, 2-[2-(6-methyl-2-pyridyl)imidazo[1,2-a]pyridin-3-yl]-7-(5,6,7,8-tetrahydro-[1,2,4]triazolo[1,5-a]pyrazin-2-yl)-1,5-naphthyridine]	< 20
0.0398 to 0.316	Cc1cccc(-c2[nH]cnc2-c2ccc3ncc(-c4ccc(C(=O)O[C@H]5CCN(C)C5)s4)cc3c2)n1 [Compound 1008, (S)-1-methylpyrrolidin-3-yl 5-(6-(5-(6-methylpyridin-2-yl)-1H-imidazol-4-yl)quinolin-3-yl)thiophene-2-carboxylate]	25.1 to 158
< 0.0316	Cc1cccc(-c2[nH]cnc2-c2ccc3ncc(-c4cc(C(=O)OC5CNC5)cs4)cc3c2)n1 [Compound 1057, azetidin-3-yl 5-[6-[5-(6-methyl-2-pyridyl)-1H-imidazol-4-yl]-3-quinolyl]thiophene-3-carboxylate]	25.1 to 158
< 0.0316	Cc1cccc(-c2[nH]cnc2-c2ccc3ncc(-c4ccnc(C(=O)O)c4)cc3c2)n1 [Compound 1092, 4-[6-[5-(6-methyl-2-pyridyl)-1H-imidazol-4-yl]-3-quinolyl]pyridine-2-carboxylic acid]	1580 to 10000
< 0.0316	Cc1cccc(-c2[nH]cnc2-c2ccc3ncc(-c4csc(C(=O)OC[C@@H]5CCCN5)c4)cc3c2)n1 [Compound 1183, [(2S)-pyrrolidin-2-yl]methyl 4-[6-[5-(6-methyl-2-pyridyl)-1H-imidazol-4-yl]-3-quinolyl]thiophene-2-carboxylate]	25.1 to 158
0.0398 to 0.316	Cc1cccc(-c2n[nH]cc2-c2ccc3ncc(-c4nn[nH]n4)cc3n2)n1 [Compound 177, 2-[3-(6-methyl-2-pyridyl)-1H-pyrazol-4-yl]-7-(2H-tetrazol-5-yl)-1,5-naphthyridine]	1580 to 10000
0.0398 to 0.316	Cc1nc(-c2[nH]cnc2-c2ccc3ncc(-c4cn5c(n4)CNCC5)cc3n2)ccc1F [Compound 91, 2-[5-(5-fluoro-6-methyl-2-pyridyl)-1H-imidazol-4-yl]-7-(5,6,7,8-tetrahydroimidazo[1,2-a]pyrazin-2-yl)-1,5-naphthyridine]	25.1 to 158
0.0398 to 0.316	Cc1cccc(-c2[nH]cnc2-c2ccc3ncc(NC(=O)C4CNC4)cc3c2)n1 [Compound 579, N-[6-[5-(6-methyl-2-pyridyl)-1H-imidazol-4-yl]-3-quinolyl]azetidine-3-carboxamide]	1580 to 10000
< 0.0316	Cc1cccc(-c2n[nH]cc2-c2ccc3ncc(-c4ccc(O)nc4)cc3n2)n1 [Compound 374, 5-[6-[3-(6-methyl-2-pyridyl)-1H-pyrazol-4-yl]-1,5-naphthyridin-3-yl]pyridin-2-ol]	25.1 to 158
< 0.0316	Cc1cccc(-c2[nH]cnc2-c2ccc3ncc(C4=CCN(C)C4)cc3c2)n1 [Compound 16, 3-(1-methyl-2,5-dihydropyrrol-3-yl)-6-[5-(6-methyl-2-pyridyl)-1H-imidazol-4-yl]quinoline]	< 20
0.398 to 3.16	Cc1cccc(-c2[nH]cnc2-c2ccc3ncc(C(=O)O[C@@H]4CCCC[C@H]4N)cc3c2)n1 [Compound 880, (1R,2R)-2-aminocyclohexyl 6-(5-(6-methylpyridin-2-yl)-1H-imidazol-4-yl)quinoline-3-carboxylate]	25.1 to 158
0.398 to 3.16	COc1[nH]nc(-c2cccc(C)n2)c1-c1ccc2ncc(NCCN3CCOCC3)cc2n1 [Compound 87, 6-[5-methoxy-3-(6-methyl-2-pyridyl)-1H-pyrazol-4-yl]-N-(2-morpholinoethyl)-1,5-naphthyridin-3-amine]	200 to 1260
< 0.0316	Cc1cccc(-c2[nH]cnc2-c2ccc3ncc(-c4ccc5c(c4)C(N)CC5)cc3c2)n1 (stereo not shown) [Compound 726, 6-[6-[5-(6-methyl-2-pyridyl)-1H-imidazol-4-yl]-3-quinolyl]indan-1-amine]	25.1 to 158
0.0398 to 0.316	Cc1cccc(-c2[nH]cnc2-c2ccc3ncc(NC(=O)C4CN5CCN4CC5)cc3c2)n1 (stereo not shown) [Compound 406, N-[6-[5-(6-methyl-2-pyridyl)-1H-imidazol-4-yl]-3-quinolyl]-1,4-diazabicyclo[2.2.2]octane-2-carboxamide]	200 to 1260
< 0.0316	Cc1cccc(-c2n[nH]cc2-c2ccc3ncc(-c4ccnc(C#N)c4)cc3n2)n1 [Compound 9, 4-[6-[3-(6-methyl-2-pyridyl)-1H-pyrazol-4-yl]-1,5-naphthyridin-3-yl]pyridine-2-carbonitrile]	< 20
0.0398 to 0.316	Cc1cccc(-c2nnn(Cc3ccccc3)c2-c2ccc3ncc(N4CCNCC4)cc3n2)n1 [Compound 359, 2-(1-benzyl-4-(6-methylpyridin-2-yl)-1H-1,2,3-triazol-5-yl)-7-(piperazin-1-yl)-1,5-naphthyridine]	25.1 to 158

— patent publication US11590116B2 (THERAVANCE BIOPHARMA R&D IP, LLC, priority 2019, dated 2023)
